Data published in patent EP4624466A1, “DEGRADER FOR DECOMPOSING CMET PROTEIN, AND PHARMACEUTICAL COMPOSITION COMPRISING SAME” (Innocure Therapeutics, Inc., priority 2022, dated 2024).
Like-named read-outs stand apart in the source and are kept apart here.

Legend:
MKN-45 = experiment: Cell viability / antiproliferative assay (WST-8), MKN-45; conditions: read-out: MKN-45 IC50;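 note: MKN-45 is a human gastric cancer line overexpressing c-MET, growth inhibition read as WST-8 formazan absorbance at 450 nm after 2 h dye incubation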
Protocol: c-MET overexpressing human gastric cancer cell lines [MKN45] and [SNU638] were cultured in RPMI medium with 10% fetal bovine serum, penicillin (100U/ml), and streptomycin (100mg/ml), and c-MET exon 14 skipping mutant human gastric cancer cell lines [Hs746T] were cultured in DMEM media. The c-MET overexpressing human lung cancer cell line EBC-1 was cultured in MEM media with the addition of 10% fetal bovine serum, penicillin (100U/ml), and streptomycin (100mg/ml). […] The compound synthesized in accordance with the present invention was prepared with a raw material solution of 10 mM dissolved in DMSO (dimethyl sulfoxide), and was sequentially diluted and processed.
In order to observe the inhibitory activity on cell growth, cells were dispensed in a 96-well plate at a concentration of 5,000 cells/well, and then treated with the compound prepared at various concentrations for 72 hours. The viability of the cells was calculated using GraphicPad Prism 8.0 software by adding 10 ml per well of WST-8 (water soluble tetrazolium salt) sample, which reacts with dehydrogenase present in the electron transport system of mitochondria to produce formazon, incubated for 2 hours, and measured absorbance at 450 nm.

c-MET = c-MET (Homo sapiens, UniProt P08581); experiment: c-MET protein degradation (Simple Western), MKN-45; type: cell-based; design: assess the resolution of the compound of the present invention for c-MET expressed in cells; endogenous in cells; host or cells: MKN45 (human gastric cancer); conditions: c-MET overexpressing gastric cancer cell line MKN-45, treated 24 hours
Chain of c-MET (P08581 25-1390): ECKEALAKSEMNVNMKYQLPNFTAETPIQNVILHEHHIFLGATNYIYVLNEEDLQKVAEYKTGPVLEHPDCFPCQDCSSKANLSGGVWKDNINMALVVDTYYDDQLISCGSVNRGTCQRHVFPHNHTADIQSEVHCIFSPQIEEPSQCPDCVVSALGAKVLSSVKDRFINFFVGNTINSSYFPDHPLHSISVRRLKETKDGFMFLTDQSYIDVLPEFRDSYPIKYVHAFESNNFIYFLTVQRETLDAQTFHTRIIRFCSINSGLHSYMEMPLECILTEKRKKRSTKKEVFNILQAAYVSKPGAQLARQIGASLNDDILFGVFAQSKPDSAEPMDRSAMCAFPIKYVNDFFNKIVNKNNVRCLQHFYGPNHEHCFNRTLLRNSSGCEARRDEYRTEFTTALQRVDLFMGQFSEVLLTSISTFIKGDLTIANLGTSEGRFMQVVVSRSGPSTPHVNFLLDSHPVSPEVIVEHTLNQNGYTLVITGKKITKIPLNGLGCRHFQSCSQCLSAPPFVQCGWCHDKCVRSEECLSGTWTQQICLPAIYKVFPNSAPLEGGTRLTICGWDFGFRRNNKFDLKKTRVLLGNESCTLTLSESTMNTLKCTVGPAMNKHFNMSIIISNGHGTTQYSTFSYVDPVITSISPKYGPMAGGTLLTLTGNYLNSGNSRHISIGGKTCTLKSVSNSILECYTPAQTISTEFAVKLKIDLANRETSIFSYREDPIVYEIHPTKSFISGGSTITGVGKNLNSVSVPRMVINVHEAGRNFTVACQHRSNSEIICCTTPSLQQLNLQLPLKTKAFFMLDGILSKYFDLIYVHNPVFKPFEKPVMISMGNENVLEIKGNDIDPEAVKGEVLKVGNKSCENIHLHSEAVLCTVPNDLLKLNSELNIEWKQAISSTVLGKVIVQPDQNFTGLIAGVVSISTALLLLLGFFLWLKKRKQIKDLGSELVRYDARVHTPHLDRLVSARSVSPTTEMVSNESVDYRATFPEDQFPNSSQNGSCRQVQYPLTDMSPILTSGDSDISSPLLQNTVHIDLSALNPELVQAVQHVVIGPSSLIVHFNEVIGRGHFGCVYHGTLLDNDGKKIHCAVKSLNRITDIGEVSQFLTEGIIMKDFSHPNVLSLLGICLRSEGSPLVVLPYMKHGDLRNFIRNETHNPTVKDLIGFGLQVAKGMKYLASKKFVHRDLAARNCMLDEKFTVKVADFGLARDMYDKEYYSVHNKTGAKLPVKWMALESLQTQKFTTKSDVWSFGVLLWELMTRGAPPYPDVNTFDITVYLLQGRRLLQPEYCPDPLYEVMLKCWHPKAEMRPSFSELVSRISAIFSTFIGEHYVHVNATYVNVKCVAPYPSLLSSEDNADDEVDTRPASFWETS
Protocol: In order to assess the resolution of the compound of the present invention for c-MET expressed in cells, cells were dispensed in a 12-well plate at a concentration of 2 × 10^5 cells/well, and then gastric cancer cell lines were treated with samples for 24 hours and lung cancer cell lines were treated for 48 hours. Cell lysates were collected using a scraper on ice, centrifuged at 4°C15,000 rpm for 30 min to obtain a protein-containing supernatant. Protein expression was then measured using the Simple Western Automated Western Blot System Abby instrument using 3 µg of protein for each sample. SDS and heat-induced denaturation proteins were separated by molecular weight, attached to capillary, reacted with anti-c-MET or anti-GAPDH antibodies, which are primary antibodies, and then reacted with HRP-conjugated secondary antibodies, and analyzed the protein expression signal with compass software. Protein expression was normalized based on the expression value of GAPDH, and protein development in each sample was measured as a percentage (%) based on 100% of samples treated with 0.1% DMSO carriers, and DC50 (concentration of a compound where 50% protein inhibition is achieved) was calculated from the change in protein expression amount due to compound treatment.

[1] = MKN-45 cells, 72 hours, WST-8, Table 2

Row | Structure (SMILES) | IC50 (MKN-45; Homo sapiens, MKN-45, 72 h) [nM] | DC50 (c-MET; Table 2) [nM] | IC50 (MKN-45; [1]) [nM] | DC50 (c-MET; Table 1) [nM]
1 | N#Cc1cccc(-c2ccc(=O)n(Cc3cccc(-c4ncc(OCC5CCN(C(=O)CCCCCCNc6ccc7c(=O)n(C8CCC(=O)NC8=O)ncc7c6)CC5)cn4)c3)n2)c1 (stereo not shown) [ICT-0000985, 3-(1-{[3-(5-{[1-(7-{[2-(2,6-dioxopiperidin-3-yl)-1-oxo-1,2-dihydropthalazine-6-yl]amino}heptanoyl)piperidine-4-il]methoxy}pyrimidine-2-yl)phenyl]methyl}-6-oxo-1,6-dihydropyridazine-3-yl)benzonitrile] | < 100 | < 100 |  | 
2 | N#Cc1cccc(-c2ccc(=O)n(Cc3cccc(-c4ncc(OCC5CCN(C(=O)COCCOCCNc6ccc7c(=O)n(C8CCC(=O)NC8=O)ncc7c6)CC5)cn4)c3)n2)c1 (stereo not shown) [ICT-0000986] | < 100 | < 100 |  | 
3 | N#Cc1cccc(-c2ccc(=O)n(Cc3cccc(-c4ncc(OCC5CCN(C(=O)COCCOCCOCCNc6ccc7c(=O)n(C8CCC(=O)NC8=O)ncc7c6)CC5)cn4)c3)n2)c1 (stereo not shown) [ICT-0000987] |  | 100 to 1000 | < 100 | 
4 | N#Cc1cccc(-c2ccc(=O)n(Cc3cccc(-c4ncc(OCC5CCN(C(=O)COCCOCCOCCOCCNc6ccc7c(=O)n(C8CCC(=O)NC8=O)ncc7c6)CC5)cn4)c3)n2)c1 (stereo not shown) [ICT-0000988, 3-(1-{[3-(5-{[1-(14-{[2-(2,6-dioxopiperidin-3-yl)-1-oxo-1,2-dihydroptalazine-6-yl]amino}-3,6,9,12-tetradecanoyl)piperidin-4-yl]methoxy}pyrimidine-2-yl)phenyl]methyl}-6-oxo-1,6-dihydropyridazine-3-yl)benzonitrile] | 100 to 1000 | < 100 |  | 
5 | Cc1nn(C2CCC(=O)NC2=O)c(=O)c2ccc(NCCCCCC(=O)N3CCC(COc4cnc(-c5cccc(Cn6nc(-c7cccc(C#N)c7)ccc6=O)c5)nc4)CC3)cc12 (stereo not shown) [ICT-0000990] | 100 to 1000 | 100 to 1000 |  | 
6 | Cc1nn(C2CCC(=O)NC2=O)c(=O)c2ccc(NCCOCCOCC(=O)N3CCC(COc4cnc(-c5cccc(Cn6nc(-c7cccc(C#N)c7)ccc6=O)c5)nc4)CC3)cc12 (stereo not shown) [ICT-0001087] | < 100 | < 100 |  | 
7 | Cc1nn(C2CCC(=O)NC2=O)c(=O)c2ccc(NCCOCCOCCOCCOCCC(=O)N3CCC(COc4cnc(-c5cccc(Cn6nc(-c7cccc(C#N)c7)ccc6=O)c5)nc4)CC3)cc12 (stereo not shown) [ICT-0001091] | < 100 | < 100 |  | 
8 | Cn1cc(-c2cnc3c(nnn3C[C@@H]3CN(c4ncc(-c5ccc(CN6CCN(C(=O)CN7CCN(c8ccc9c(=O)n(C%10CCC(=O)NC%10=O)ncc9c8)CC7)CC6)cc5)cn4)CCO3)n2)cn1 (stereo partly shown) [ICT-0001109] | < 100 |  |  | < 100
9 | Cc1nn(C2CCC(=O)NC2=O)c(=O)c2ccc(N3CCN(CC(=O)N4CCC(COc5cnc(-c6cccc(Cn7nc(-c8cccc(C#N)c8)ccc7=O)c6)nc5)CC4)CC3)cc12 (stereo not shown) [ICT-0001173] | < 100 | < 100 |  | 
10 | Cc1nn(C2CCC(=O)NC2=O)c(=O)c2ccc(N3CCN(CCC(=O)N4CCC(COc5cnc(-c6cccc(Cn7nc(-c8cccc(C#N)c8)ccc7=O)c6)nc5)CC4)CC3)cc12 (stereo not shown) [ICT-0001174] | < 100 | < 100 |  | 
11 | Cc1nn(C2CCC(=O)NC2=O)c(=O)c2ccc(N3CCN(CCCC(=O)N4CCC(COc5cnc(-c6cccc(Cn7nc(-c8cccc(C#N)c8)ccc7=O)c6)nc5)CC4)CC3)cc12 (stereo not shown) [ICT-0001175, 3-(1-(3-(5-((1-(4-(4-(2-(2,6-dioxopiperidine-3-yl)-4-methyl-1-oxo-1,2-dihydropthalazine-6-yl)piperazine-1-yl)butanoyl)piperidine-4-il)methoxy)pyrimidine-2-yl)benzyl)6-oxo-1,6-dihydropyridazine-3-yl)benzonitrile] | < 100 | < 100 |  | 
12 | Cc1nn(C2CCC(=O)NC2=O)c(=O)c2ccc(N3CCN(CCCCC(=O)N4CCC(COc5cnc(-c6cccc(Cn7nc(-c8cccc(C#N)c8)ccc7=O)c6)nc5)CC4)CC3)cc12 (stereo not shown) [ICT-0001176] | < 100 | < 100 |  | 
13 | Cc1nn(C2CCC(=O)NC2=O)c(=O)c2ccc(N3CCN(C(=O)CN4CCC(COc5cnc(-c6cccc(Cn7nc(-c8cccc(C#N)c8)ccc7=O)c6)nc5)CC4)CC3)cc12 (stereo not shown) [ICT-0001177, 3-(1-{[3-(5-{[1-(2-{4-[2-(2,6-dioxopiperidin-3-yl)-4-methyl-1-oxo-1,2-dihydropthalazine-6-yl]piperazine-1-yl}-2-oxoethyl)piperidine-4-yl]methoxy}pyrimidine-2-yl)phenyl]methyl}-6-oxo-1,6-dihydropyridazine-3-yl)benzonitrile] | < 100 | < 100 |  | 
14 | Cc1nn(C2CCC(=O)NC2=O)c(=O)c2cc(N3CCN(CC4CCN(C(=O)CN5CCC(COc6cnc(-c7cccc(Cn8nc(-c9cccc(C#N)c9)ccc8=O)c7)nc6)CC5)CC4)CC3)ccc12 (stereo not shown) [ICT-0001195] | < 100 | < 100 |  | 
15 | N#Cc1cccc(-c2ccc(=O)n(Cc3cccc(-c4ncc(OCC5CCN(C(=O)CCN6CCN(c7ccc8c(=O)n(C9CCC(=O)NC9=O)ncc8c7)CC6)CC5)cn4)c3)n2)c1 (stereo not shown) [ICT-0001199, 3-(1-{[3-(5-{[1-(3-{4-[2-(2,6-dioxopiperidin-3-yl)-1-oxo-1,2-dihydropthalazine-6-yl]piperazine-1-yl}propanoyl)piperidine-4-il]methoxy}pyrimidin-2-yl)phenyl]methyl}-6-oxo-1,6-dihydropyridazine-3-yl)benzonitrile] | < 100 | < 100 |  | 
16 | N#Cc1cccc(-c2ccc(=O)n(Cc3cccc(-c4ncc(OCC5CCN(C(=O)CCCN6CCN(c7ccc8c(=O)n(C9CCC(=O)NC9=O)ncc8c7)CC6)CC5)cn4)c3)n2)c1 (stereo not shown) [ICT-0001200] | < 100 | < 100 |  | 
17 | N#Cc1cccc(-c2ccc(=O)n(Cc3cccc(-c4ncc(OCC5CCN(C(=O)CCCCN6CCN(c7ccc8c(=O)n(C9CCC(=O)NC9=O)ncc8c7)CC6)CC5)cn4)c3)n2)c1 (stereo not shown) [ICT-0001201, 3-(1-{[3-(5-{[1-(5-{4-[2-(2,6-dioxopiperidin-3-yl)-1-oxo-1,2-dihydropetalazine-6-yl]piperazine-1-yl}pentanoyl)piperidine-4-il]methoxy}pyrimidine-2-yl)phenyl]methyl}6-oxo-1,6-dihydropyridazine-3-yl)benzonitrile] | < 100 | < 100 |  | 
18 | N#Cc1cccc(-c2ccc(=O)n(Cc3cccc(-c4ncc(OCC5CCN(CC(=O)NCCCCCc6ccc7c(=O)n(C8CCC(=O)NC8=O)ncc7c6)CC5)cn4)c3)n2)c1 (stereo not shown) [ICT-0001206] | < 100 | < 100 |  | 
19 | Cc1nn(C2CCC(=O)NC2=O)c(=O)c2ccc(N3CCC(CN4CCN(CC(=O)N5CCC(COc6cnc(-c7cccc(Cn8nc(-c9cccc(C#N)c9)ccc8=O)c7)nc6)CC5)CC4)CC3)cc12 (stereo not shown) [ICT-0001213] | < 100 | < 100 |  | 
20 | Cc1nn(C2CCC(=O)NC2=O)c(=O)c2cc(N3CCN(CC(=O)N4CCC(COc5cnc(-c6cccc(Cn7nc(-c8cccc(C#N)c8)ccc7=O)c6)nc5)CC4)CC3)ccc12 (stereo not shown) [ICT-0001214, 3-(1-(3-(5-((1-(2-(4-(3-(2,6-dioxopiperidin-3-yl)-1-methyl-4-oxo-3,4-dihydropetalazine-6-yl)piperazine-1-il)acetyl)piperidine-4-il)methoxy)pyrimidine-2-yl)benzyl)6-oxo-1,6-dihydropyridazine-3-yl)benzonitrile] |  | < 100 | < 100 | 
21 | Cc1nn(C2CCC(=O)NC2=O)c(=O)c2cc(N3CCN(CCCCC(=O)N4CCC(COc5cnc(-c6cccc(Cn7nc(-c8cccc(C#N)c8)ccc7=O)c6)nc5)CC4)CC3)ccc12 (stereo not shown) [ICT-0001217] | < 100 | < 100 |  | 
22 | Cc1nn(C2CCC(=O)NC2=O)c(=O)c2ccc(N3CCC(NC4CCN(CC(=O)N5CCC(COc6cnc(-c7cccc(Cn8nc(-c9cccc(C#N)c9)ccc8=O)c7)nc6)CC5)CC4)CC3)cc12 (stereo not shown) [ICT-0001219] | < 100 | < 100 |  | 
23 | N#Cc1cccc(-c2ccc(=O)n(Cc3cccc(-c4ncc(OCC5CCN(CC(=O)N6CCN(c7ccc8c(=O)n(C9CCC(=O)NC9=O)ncc8c7)CC6)CC5)cn4)c3)n2)c1 (stereo not shown) [ICT-0001221] | < 100 | < 100 |  | 
24 | Cc1nn(C2CCC(=O)NC2=O)c(=O)c2ccc(N3CCO[C@H](CN4CCN(CC(=O)N5CCC(COc6cnc(-c7cccc(Cn8nc(-c9cccc(C#N)c9)ccc8=O)c7)nc6)CC5)CC4)C3)cc12 (stereo partly shown) [ICT-0001229] | < 100 | < 100 |  | 
25 | Cc1nn(C2CCC(=O)NC2=O)c(=O)c2cc(N3CCC(N4CCN(C(=O)CN5CCC(COc6cnc(-c7cccc(Cn8nc(-c9cccc(C#N)c9)ccc8=O)c7)nc6)CC5)CC4)CC3)ccc12 (stereo not shown) [ICT-0001233, 3-(1-(3-(5-((1-(2-(4-(1-(3-(2,6-dioxopiperidine-3-yl)-1-methyl-4-oxo-3,4-dihydropthalazine-6-yl)piperidine-4-yl)piperazine-1-yl)2-oxoethyl)piperidine-4-il)methoxy)pyrimidine-2-yl)benzyl)6-oxo-1,6-dihydropyridine-3-yl)benzonitrile] | < 100 | < 100 |  | 
26 | Cc1nn(C2CCC(=O)NC2=O)c(=O)c2cc(N3CCC(CN4CCN(C(=O)CN5CCC(COc6cnc(-c7cccc(Cn8nc(-c9cccc(C#N)c9)ccc8=O)c7)nc6)CC5)CC4)CC3)ccc12 (stereo not shown) [ICT-0001234] | < 100 | > 1000 |  | 
